According to US20230257372A1 (CHONG KUN DANG PHARMACEUTICAL CORP., priority 2020, published 2023):
Read-outs that look alike come from different tables or passages of the source.

How the values were obtained:
human recombinant HDAC1 = target: T1, human recombinant HDAC1 (Homo sapiens, UniProt Q13547); assay: HDAC1 enzyme activity inhibition (HDAC Fluorimetric Drug Discovery Kit); assay type: biochemical
T1 construct: purchased Enzo Life Science, Inc. BML-SE456
How it was run: (§1)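 Five-fold compound dilutions incubated with […] recombinant enzyme and 10 μM fluorogenic Fluor de Lys substrate, 60 min at 30° C. Fluor de Lys Developer II then added for 30 min to generate the fluorescent read-out.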

human recombinant HDAC6 = target: T2, human recombinant HDAC6 (Homo sapiens, UniProt Q9UBN7); assay: HDAC6 enzyme activity inhibition (HDAC Fluorimetric Drug Discovery Kit); assay type: biochemical; conditions: for HDAC6 selectivity (fold): HDAC6 over HDAC1; for IC50: human recombinant HDAC6, same protocol as HDAC1
T2 construct: purchased Calbiochem Inc. 382180
T2 sequence (Q9UBN7 1-1215): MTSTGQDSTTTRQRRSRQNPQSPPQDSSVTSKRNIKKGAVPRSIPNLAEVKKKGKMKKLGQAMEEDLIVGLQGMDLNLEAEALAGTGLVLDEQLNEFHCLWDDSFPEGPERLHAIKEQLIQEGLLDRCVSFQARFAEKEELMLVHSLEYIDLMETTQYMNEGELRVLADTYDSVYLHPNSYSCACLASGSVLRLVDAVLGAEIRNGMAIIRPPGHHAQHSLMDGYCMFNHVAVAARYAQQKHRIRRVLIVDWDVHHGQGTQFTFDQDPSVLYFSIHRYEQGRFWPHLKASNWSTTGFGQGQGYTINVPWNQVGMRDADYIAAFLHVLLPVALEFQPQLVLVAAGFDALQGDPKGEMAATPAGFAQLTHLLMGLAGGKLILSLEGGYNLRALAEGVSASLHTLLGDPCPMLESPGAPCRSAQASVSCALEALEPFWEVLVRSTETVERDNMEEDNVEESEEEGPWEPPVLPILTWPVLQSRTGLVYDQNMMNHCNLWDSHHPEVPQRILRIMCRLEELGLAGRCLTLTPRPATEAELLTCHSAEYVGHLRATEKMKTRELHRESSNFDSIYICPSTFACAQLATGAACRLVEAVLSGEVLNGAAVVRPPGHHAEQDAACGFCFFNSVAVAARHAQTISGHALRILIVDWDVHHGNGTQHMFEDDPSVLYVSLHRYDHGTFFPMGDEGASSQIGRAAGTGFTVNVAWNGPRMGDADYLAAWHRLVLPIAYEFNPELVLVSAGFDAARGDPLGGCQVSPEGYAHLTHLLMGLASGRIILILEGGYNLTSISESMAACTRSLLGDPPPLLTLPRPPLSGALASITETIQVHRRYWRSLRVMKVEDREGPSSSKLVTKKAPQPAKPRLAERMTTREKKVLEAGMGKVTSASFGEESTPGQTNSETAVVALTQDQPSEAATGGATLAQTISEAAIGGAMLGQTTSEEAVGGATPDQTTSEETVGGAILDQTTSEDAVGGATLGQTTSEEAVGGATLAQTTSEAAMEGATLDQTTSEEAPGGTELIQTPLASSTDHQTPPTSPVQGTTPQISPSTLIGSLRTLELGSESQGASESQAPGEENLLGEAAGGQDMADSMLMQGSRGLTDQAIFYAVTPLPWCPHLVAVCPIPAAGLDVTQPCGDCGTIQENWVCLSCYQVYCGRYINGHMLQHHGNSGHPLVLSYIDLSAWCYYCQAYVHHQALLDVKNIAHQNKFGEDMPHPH
How it was run: as §1

[1] = human recombinant HDAC1, Fluor de Lys substrate, 30° C. 60 minutes, read-out: HDAC1

T1 sequence (Q13547 whole entry): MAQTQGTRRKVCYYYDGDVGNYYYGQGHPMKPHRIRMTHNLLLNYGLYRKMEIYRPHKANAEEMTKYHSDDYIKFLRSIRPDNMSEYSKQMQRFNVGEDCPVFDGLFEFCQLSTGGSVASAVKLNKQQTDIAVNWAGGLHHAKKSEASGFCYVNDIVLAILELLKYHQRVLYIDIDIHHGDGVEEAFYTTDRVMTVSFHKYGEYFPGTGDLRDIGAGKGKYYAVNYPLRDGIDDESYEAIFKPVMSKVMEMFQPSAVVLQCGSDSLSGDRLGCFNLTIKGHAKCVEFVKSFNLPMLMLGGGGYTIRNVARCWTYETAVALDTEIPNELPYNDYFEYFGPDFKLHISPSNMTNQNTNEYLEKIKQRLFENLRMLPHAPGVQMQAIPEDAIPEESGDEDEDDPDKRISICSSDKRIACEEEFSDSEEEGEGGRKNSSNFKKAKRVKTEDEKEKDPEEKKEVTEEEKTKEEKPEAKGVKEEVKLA

Row | SMILES | IC50 (human recombinant HDAC1; [1]) [nM] | HDAC6 selectivity (fold) (human recombinant HDAC6) | IC50 (human recombinant HDAC6) [nM] | IC50 (human recombinant HDAC1) [nM]
1 | Fc1cc(-c2nnc(C(F)F)o2)cnc1Cn1cc(-c2cccs2)nn1 [Compound 17984, 2-(difluoromethyl)-5-(5-fluoro-6-((4-(thiophen-2-yl)-1H-1,2,3-triazol-1-yl)methyl)pyridin-3-yl)-1,3,4-oxadiazole] | > 50000 | 884 | 56.5 | –
2 | Fc1cc(-c2nnc(C(F)F)o2)cnc1Cn1cc(-c2ccc(CN3CCCC3)s2)nn1 [Compound 18059, 2-(difluoromethyl)-5-(5-fluoro-6-((4-(5-(pyrrolidin-1-ylmethyl)thiophen-2-yl)-1H-1,2,3-triazol-1-yl)methyl)pyridin-3-yl)-1,3,4-oxadiazole] | > 50000 | 1295 | 38.6 | –
3 | Fc1cc(-c2nnc(C(F)F)o2)ccc1Cn1cc(-c2ccc(CN3CCC3)nc2)nn1 [Compound 18174, 2-(4-((4-(6-(azetidin-1-ylmethyl)pyridin-3-yl)-1H-1,2,3-triazol-1-yl)methyl)-3-fluorophenyl)-5-(difluoromethyl)-1,3,4-oxadiazole] | > 50000 | 980 | 51 | –
4 | Fc1cc(-c2nnc(C(F)F)o2)ccc1Cn1cc(-c2ccc(CN3CCCC3)nc2)nn1 [Compound 18175, 2-(difluoromethyl)-5-(3-fluoro-4-((4-(6-(pyrrolidin-1-ylmethyl)pyridin-3-yl)-1H-1,2,3-triazol-1-yl)methyl)phenyl)-1,3,4-oxadiazole] | > 50000 | 1184 | 42.2 | –
5 | CC1CCN(Cc2ccc(-c3cn(Cc4ccc(-c5nnc(C(F)F)o5)cc4F)nn3)cn2)CC1 [Compound 18177, 2-(difluoromethyl)-5-(3-fluoro-4-((4-(6-((4-methylpiperidin-1-yl)methyl)pyridin-3-yl)-1H-1,2,3-triazol-1-yl)methyl)phenyl)-1,3,4-oxadiazole] | > 50000 | 784 | 63.7 | –
6 | Fc1cc(-c2nnc(C(F)F)o2)ccc1Cn1cc(-c2csc(CN3CCC3)c2)nn1 [Compound 18178, 2-(4-((4-(5-(azetidin-1-ylmethyl)thiophen-3-yl)-1H-1,2,3-triazol-1-yl)methyl)-3-fluorophenyl)-5-(difluoromethyl)-1,3,4-oxadiazole] | > 50000 | 657 | 76.1 | –
7 | Fc1cc(-c2nnc(C(F)F)o2)ccc1Cn1cc(-c2csc(CN3CC[C@@H](F)C3)c2)nn1 [Compound 18180, (R)-2-(difluoromethyl)-5-(3-fluoro-4-((4-(5-((3-fluoropyrrolidin-1-yl)methyl)thiophen-3-yl)-1H-1,2,3-triazol-1-yl)methyl)phenyl)-1,3,4-oxadiazole] | > 50000 | 672 | 74.3 | –
8 | Fc1cc(-c2nnc(C(F)F)o2)ccc1Cn1cc(-c2csc(CN3CCCC3)c2)nn1 [Compound 18187, 2-(difluoromethyl)-5-(3-fluoro-4-((4-(5-(pyrrolidin-1-ylmethyl)thiophen-3-yl)-1H-1,2,3-triazol-1-yl)methyl)phenyl)-1,3,4-oxadiazole] | > 50000 | 605 | 82.6 | –
9 | CN(C)Cc1cc(-c2cn(Cc3ccc(-c4nnc(C(F)F)o4)cc3F)nn2)cs1 [Compound 18188, 1-(4-(1-(4-(5-(difluoromethyl)-1,3,4-oxadiazol-2-yl)-2-fluorobenzyl)-1H-1,2,3-triazol-4-yl)thiophen-2-yl)-N,N-dimethylmethanamine] | > 50000 | 668 | 74.8 | –
10 | Fc1cc(-c2nnc(C(F)F)o2)ccc1Cn1cc(-c2ccccn2)nn1 [Compound 18256, 2-(difluoromethyl)-5-(3-fluoro-4-((4-(pyridin-2-yl)-1H-1,2,3-triazol-1-yl)methyl)phenyl)-1,3,4-oxadiazole] | > 50000 | 1144 | 43.7 | –
11 | Fc1cc(-c2nnc(C(F)F)o2)ccc1Cn1cc(-c2cccs2)nn1 [Compound 18258, 2-(difluoromethyl)-5-(3-fluoro-4-((4-(thiophen-2-yl)-1H-1,2,3-triazol-1-yl)methyl)phenyl)-1,3,4-oxadiazole] | > 50000 | 582 | 85.9 | –
12 | Fc1cc(-c2nnc(C(F)F)o2)cnc1Cn1cc(-c2cccnc2)nn1 [Compound 18305, 2-(difluoromethyl)-5-(5-fluoro-6-((4-(pyridin-3-yl)-1H-1,2,3-triazol-1-yl)methyl)pyridin-3-yl)-1,3,4-oxadiazole] | > 50000 | 539 | 92.7 | –

Continued, values first:

Row | IC50 (human recombinant HDAC1; [1]) [nM] | HDAC6 selectivity (fold) (human recombinant HDAC6) | IC50 (human recombinant HDAC6) [nM] | IC50 (human recombinant HDAC1) [nM] | SMILES
13 | > 50000 | 775 | 64.5 | – | Fc1cc(-c2nnc(C(F)F)o2)ccc1Cn1cc(-c2ccc(CN3CC[C@@H](F)C3)cn2)nn1 [Compound 18260, (R)-2-(difluoromethyl)-5-(3-fluoro-4-((4-(5-((3-fluoropyrrolidin-1-yl)methyl)pyridin-2-yl)-1H-1,2,3-triazol-1-yl)methyl)phenyl)-1,3,4-oxadiazole]
14 | > 50000 | 986 | 50.7 | – | CC1CCN(Cc2ccc(-c3cn(Cc4ncc(-c5nnc(C(F)F)o5)cc4F)nn3)s2)CC1 [Compound 18310, 2-(difluoromethyl)-5-(5-fluoro-6-((4-(5-((4-methylpiperidin-1-yl)methyl)thiophen-2-yl)-1H-1,2,3-triazol-1-yl)methyl)pyridin-3-yl)-1,3,4-oxadiazole]
15 | > 50000 | 934 | 53.5 | – | CN(C)Cc1ccc(-c2cn(Cc3ncc(-c4nnc(C(F)F)o4)cc3F)nn2)s1 [Compound 18311, 1-(5-(1-((5-(5-(difluoromethyl)-1,3,4-oxadiazol-2-yl)-3-fluoropyridin-2-yl)methyl)-1H-1,2,3-triazol-4-yl)thiophen-2-yl)-N,N-dimethylmethanamine]
16 | – | 502 | 99.5 | > 50000 | Fc1cc(-c2nnc(C(F)F)o2)ccc1Cn1cc(-c2ccc(N3CCN(C4CCOCC4)CC3)c(F)c2)nn1 [Compound 18327, 2-(difluoromethyl)-5-(3-fluoro-4-((4-(3-fluoro-4-(4-(tetrahydro-2H-pyran-4-yl)piperazin-1-yl)phenyl)-1H-1,2,3-triazol-1-yl)methyl)phenyl)-1,3,4-oxadiazole]
17 | > 50000 | 554 | 90.1 | – | CN(C)Cc1cccc(-c2cn(Cc3ncc(-c4nnc(C(F)F)o4)cc3F)nn2)c1 [Compound 18457, 1-(3-(1-((5-(5-(difluoromethyl)-1,3,4-oxadiazol-2-yl)-3-fluoropyridin-2-yl)methyl)-1H-1,2,3-triazol-4-yl)phenyl)-N,N-dimethylmethanamine]
18 | > 50000 | 778 | 64.2 | – | CC1CCN(Cc2cccc(-c3cn(Cc4ncc(-c5nnc(C(F)F)o5)cc4F)nn3)c2)CC1 [Compound 18459]
19 | > 50000 | 506 | 98.7 | – | Fc1cc(-c2nnc(C(F)F)o2)ccc1Cn1cc(-c2cccc3c2OC(F)(F)O3)nn1 [Compound 18470, 2-(4-((4-(2,2-difluorobenzo[d][1,3]dioxol-4-yl)-1H-1,2,3-triazol-1-yl)methyl)-3-fluorophenyl)-5-(difluoromethyl)-1,3,4-oxadiazole]
20 | > 50000 | 970 | 51.5 | – | CN(C)Cc1cc(Cl)cc(-c2cn(Cc3ccc(-c4nnc(C(F)F)o4)cc3F)nn2)c1 [Compound 18483, 1-(3-chloro-5-(1-(4-(5-(difluoromethyl)-1,3,4-oxadiazol-2-yl)-2-fluorobenzyl)-1H-1,2,3-triazol-4-yl)phenyl)-N,N-dimethylmethanamine]
